Assays:
Type in all cases: cell-based
[1] = system: loblolly pine somatic embryos; experiment: Single somatic embryo initiation test (colony diameter); details: for Mean Colony Diameter: 0.1 mg/L added to medium 1253, measured at 4½ weeks
Experimental: (§1) For somatic initiation tests, embryos were selected from a liquid suspension culture supplemented with abscisic acid. (Table 1B, medium 16). Each replication consisted of ten adjacent wells on a multiwell plate, with a single stage 2, somatic embryo per well, providing two replications per multiwell plate. Four replications (for a total of 40 explants) were performed per treatment for each genotype. The plates were wrapped in Parafilme wrap to minimize evaporation and incubated at 22-24° C. in the dark for 4-6 weeks or until colony diameters were roughly ¾-1 cm. Typically, a single stage 2 embryo is approximately 0.1 mm in size. During this time period, the single embryo multiplies to form an embryogenic tissue mass of about 5-9 mm in diameter depending on the particular conifer, culture genotype, medium contents, and time. Changes in tissue diameters were used to assay the effects of vitamins or organic acid on early-stage embryo growth and multiplication. Colony diameters were measured using a dissecting scope ocular micrometer.
Osmolarity and pH of the culture media were monitored to ensure that these factors were similar throughout various conditions, and therefore, were not contributing to the observed differences. To analyze the results, the ANOVA statistical analysis was performed.
Single somatic embryo initiation tests were conducted to determine the effect of various vitamins on initiation. Embryos of loblolly pine were obtained and treated as described in Example 1. Isolated explants were incubated either in a control medium (Table 1A, medium 1253), or in the same medium supplemented with the K&M vitamin mixture (Table 1A, medium 1335). […] Evaluation of specific components of the K&M vitamin mixture lead to identification of the components responsible for the observed increase.
Single somatic embryo initiation tests were conducted to determine the effect of alpha-ketoglutaric acid on initiation in loblolly pine. Embryos of loblolly pine were obtained and treated as described in Example 1. The inventors note that a modification to the protocol detailed in Example 1 may be required due to the addition of an organic acid to the base medium. The addition of an acid, such as alpha-ketoglutaric acid, causes media pH to drop and therefore, all media supplemented with alpha-ketoglutaric acid were titrated to pH 5.7 before adding them to the cultures. Titration was performed with KOH, which increased potassium levels in the media by about 0.7 mM.
Single somatic embryo initiation tests were conducted according to the protocol described in Example 1. The inventors note that modification to the protocol detailed in Example 1 may be required due to the addition of an organic acid to the base medium. In culture medium containing 60.72 mg/L pyruvic acid (Table 1B, medium 1462) mean tissue diameter was 7.1 mm compared to a mean tissue diameter of 6.1 for embryos grown on the control medium 1253 indicating a positive correlation between embryo exposure to pyruvic acid and overall initiation. Iterations of this example in loblolly pine yielded similar percentage increases in initiation, e.g., a 7.2 mm mean tissue diameter for medium containing 0.52 mM pyruvic acid compared to 6.5 mm mean tissue diameter in the control medium. As shown herein, this effect is further enhanced by the combinations of multiple organic acids.

[2] = system: Douglas Fir zygotic embryos; experiment: Zygotic embryo initiation test
Experimental: (§2) Megagametophyte explants were isolated for zygotic initiation tests from loblolly pine summer cones when embryos were at approximately stage 2-4. Seeds were collected from four individual trees of diverse genotypes. Extracted seeds were soaked in running water for 10 minutes, agitated in 10% liquinox supplemented with 2 drops of Tween 20/L (polyoxyethylene-sorbitan monolaurate) for 10 minutes, and rinsed with water for 30 minutes. Seeds were sterilized in a laminar flow hood by agitating in 20% hydrogen peroxide for 10 minutes and rinsing with sterile deionized water. The seed coats, integuments and nucellus were removed to isolate the megagametophytes. Culturing was performed in 24-well culture plates with each well having an approximate volume of 3.0 ml. Two milliliters of media were added into each well.
Embryos of Douglas Fir were obtained, and treated as described in Example 1.
A further example is provided for Douglas Fir. Douglas Fir zygotic embryos were tested for improved initiation when exposed to cultures containing pyruvic acid according to the protocol described in Example 1. Control medium 121 (Table 1C) was supplemented with 60.7 mg/L pyruvic acid to create the test medium (Table 1C, medium 1625). After incubation for eight weeks in the dark, initiation was scored. For tissue exposed to pyruvic acid, mean initiation rates were approximately 35% compared to 32% for the untreated embryos.

[3] = system: loblolly pine stage 2 somatic embryos; experiment: Somatic embryo capture test in multiplication medium (colony diameter)
Experimental: as §1
Tests were conducted to determine the effect on somatic embryo capture of a medium supplemented with individual organic acids, such as alpha-ketoglutaric acid. Embryos of loblolly pine were obtained and treated as described in Example 1. Individual stage 2 embryos were selected from liquid maintenance medium and placed in multiplication medium (Table 1B, medium 1250).
Embryos of loblolly pine were obtained and treated as described in Example 1. Individual stage 2 embryos were selected from liquid maintenance medium and placed in multiplication medium (Table 1B, medium 1250). Stage 2 embryos were likewise placed in medium 1250 supplemented with 60.7 mg/L pyruvic acid (Table 1C, medium 1635). All cultures were incubated in the dark at 24-26° C. for 4-5 weeks.
A representative example for somatic capture uses embryos of loblolly pine obtained and treated as described in Example 1. Individual stage 2 embryos were selected from liquid maintenance medium and placed in multiplication medium (Table 1B, medium 1250). Compared to this control, the addition of 0.1 mg/L vitamin B12 alone to the multiplication medium (Table 1B, medium 1250) increased mean colony diameter by approximately 5%. Likewise, the addition of 100 mg/L alpha-ketoglutaric acid alone to the […] (Table 1B, medium 1250) increased mean colony diameter by approximately 10%.
Individual stage 2 embryos were selected from liquid maintenance medium and placed in multiplication control medium (Table 1B, medium 1250), as well as medium 1638, which is supplemented with 0.1 mg/L vitamin B12, 0.1 mg/L vitamin E, 100 mg/L alpha-ketoglutaric acid and 60.7 mg/L pyruvic acid (Table 1C, medium 1638). […]

[4] = system: loblolly pine megagametophytes; experiment: Zygotic initiation test with megagametophyte explants (extrusion and initiation); details: for early extrusion and embryo expansion: supplement present in the medium; for effect on extrusion and initiation efficiency: 0.1 mg/L alone (media 1357, 1359), compared with medium 1391
Experimental: as §2
Zygotic and somatic initiation tests were conducted to determine the effect of alpha-ketoglutaric acid in combination with vitamins B12 and E on initiation. Explants of loblolly pine were obtained and treated as described in Example 1 with the following modifications. Each replication consisted of ten adjacent wells on a multiwell plate, with one megagametophyte per well. Ten replications, for a total of 100 seeds, were performed per treatment for each cone collection.
According to the protocol of Example 1, four loblolly pine cone collections of approximately 500 seeds per collection with embryos at stages 2-4 were selected. Seeds were sterilized and dissected. […] Average initiation across the cone collections was roughly 30% for embryos grown on the control medium and roughly 36% for embryos grown on the test medium.

[5] = system: Norway Spruce somatic embryos; experiment: Single somatic embryo initiation test (tissue diameter); details: 60.7 mg/L (medium 1664); control medium 1662 gave 2.8 mm
Experimental: as §1
Tissue isolated and prepared according to Example 1 was incubated in a medium containing 0.1 mg/L of both vitamin B12 and E for 4-5 weeks in the dark at 24-26° C. (Table 1 D, medium 1665). Tissue cultured in medium 1665 achieved an average diameter of 3.1 mm compared to tissue cultured in the control medium, which achieved an average diameter of 2.8 mm. […]

For `O=C(O)CCC(=O)C(=O)O` [alpha-ketoglutaric acid], the “levels of initiation higher than control as measured by mean colony diameter” value ([1]; 100 ppm (medium 1342) vs control medium 1253, titrated to pH 5.7) was 20%, the “levels of initiation vs control medium 121” value ([2]; 100 mg/L (medium 1624)) was “higher levels of initiation” and the “increase in mean colony diameter vs medium 1250” value ([3]; 100 mg/L alpha-ketoglutaric acid alone) was “approximately 10%”. The “increase in mean colony diameter” value ([3]; only additive to control medium 1250, between 100 and 200 mg/L) was 5-6% and the “early extrusion and embryo expansion” value [4] was “more robust”.
In the case of vitamin B12 [reference compound], the “Mean Colony Diameter” value [1] is reported as 4.88 mm, the “increase in mean colony diameter vs medium 1250” value ([3]; 0.1 mg/L vitamin B12 alone) is reported as “approximately 5%” and the “effect on extrusion and initiation efficiency” value [4] is reported as “some, but a lesser effect”.
In the case of `Nc1ccc(C(=O)O)cc1` [p-aminobenzoic acid], the “increase in mean colony diameter as compared to the control” value ([1]; 0.2 ppm (medium 1434) vs control medium 1253) is reported as 32% and the initiation ([2]; 20 mg/L (medium 1627), base medium 121 gave 32%) is reported as 39%.
With vitamin E the “Mean Colony Diameter” value [1] was 4.65 mm, the “effect on extrusion and initiation efficiency” value [4] was “some, but a lesser effect” and the “early extrusion and embryo expansion” value [4] was “more robust”.
With `CC(=O)C(=O)O` [pyruvic acid] the mean diameters [5] was 3.6 mm, the mean tissue diameter ([1]; 0.52 mM, iteration of the example, control medium gave 6.5 mm) was 7.2 mm and the mean tissue diameter ([1]; 60.72 mg/L (medium 1462), control medium 1253 gave 6.1) was 7.1 mm. The mean initiation rates ([2]; 60.7 mg/L (medium 1625), eight weeks in the dark, untreated 32%) was “approximately 35%” and the average diameter ([3]; 60.7 mg/L in medium 1250 (medium 1635), dark, 24-26° C., 4-5 weeks, control 3.3 mm) was “roughly 3.7 mm”.

Reference: patent publication US20030153080A1, “Methods for improving conifer embryogenesis” (priority 2002, published 2003)
